What all share (type): in vivo
Test [1] relates to children with ADHD and allergic rhinitis. In words: STUDY A: allergic rhinitis measures (rhinoconjunctivitis symptoms, RQLQ). The settings on record: children 8-18 years with ADHD and seasonal allergic rhinitis; po qam for 2 weeks. As to the method:
(§1) In general, two studies were conducted to better understand the association between the allergy/immune system and the central nervous system. STUDY A, tested the effects of cetirizine (namely ZYRTEC), cetirizine and methylphenidate (namely RITALIN SR), and methylphenidate, versus placebo on attention, memory, and behavior in children with ADHD and allergic rhinitis. STUDY B assessed NGF response to cetirizine and methylphenidate treatment in children with ADHD and allergic rhinitis.
(§2) The individuals chosen to be a part of these studies had the following characteristics:
(§3) All subjects were randomized into one of four treatment groups as follows:
(§4) 1) cetirizine alone: 10 mg po qam for 2 weeks;
(§5) 2) Combination of cetirizine and methylphenidate: 10 mg po qam RITALIN SR (20 mg if <65 kg; 40 mg if ≧65 kg) po qam for 2 weeks;
(§6) 3) Methylphenidate alone: (20 mg if <65 kg; 40 mg if ≧65 kg) po qam for 2 weeks; and
1) Rhinoconjunctivitis Symptoms
2) Total Symptom Severity Complex, (TSSC)
3) Adolescent Rhinoconjunctivitis Quality of Life Questionnaire, (RQLQ)

Test [2] shares this test system. In words: STUDY A: ADHD measures, Conners' Rating Scale t-scores. The note with it: po qam for 2 weeks; for hyperactivity t-scores (FIG. 1): evaluation of the ADHD parameters. As to the method: as §1, §2, §3, §4, §5, §6
5) Conners' Rating Scale—Revised, (CRS)

A further test concerns NGF. In words: STUDY B: serum NGF assay by ELSA (Enzyme-Linked Immunosorbent Assay). The note with it: children with ADHD and allergies; po qam for 2 weeks; NGF highest on placebo. As to the method:
as §1, §2, §3, §4, §5
3) Methylphenidate alone: (20 mg if <65 kg; 40 mg if ≧65 kg) po qam for 2 weeks; and […]

With `O=C(O)COCCN1CCN(C(c2ccccc2)c2ccc(Cl)cc2)CC1` (stereo not drawn) [cetirizine], in test [1], the “RQLQ emotional symptoms, change from baseline” value is recorded as “similar”; the RQLQ nasal symptoms result was “methylphenidate had a superior effect compared to cetirizine”; the “rhinoconjuctivitis quality of life scores” value is listed as “methylphenidate had a superior effect compared to cetirizine”. Moreover, in test [2], the “hyperactivity t-scores (FIG. 1)” value is recorded as “no difference was noted”, the “parental Conner's report: ADHD score” value was “no difference was recorded”, the “parental Conner's report: hyperactivity score” value was “no difference was recorded” and the “parental Conner's report: inattention score” value is “no difference was recorded”. Moreover, the “parental Conner's report: oppositional score” value in test [2] is given as “no difference was recorded”. For the same molecule, the “serum NGF level versus placebo” value in the test on NGF is reported as “downregulated to the same extent”.
Consider `COC(=O)C(c1ccccc1)C1CCCCN1` (stereo not drawn) [methylphenidate], for which, in test [1], the “RQLQ emotional symptoms, change from baseline” value is recorded as “similar”; the RQLQ nasal symptoms result is on record as “superior effect compared to cetirizine”; the “rhinoconjuctivitis quality of life scores” value is listed as “superior effect compared to cetirizine”. In test [2], the “hyperactivity t-scores (FIG. 1)” value is reported as “no difference was noted”, the “parental Conner's report: ADHD score” value was “no difference was recorded”, the “parental Conner's report: hyperactivity score” value is “no difference was recorded” and the “parental Conner's report: inattention score” value is given as “no difference was recorded”. In addition, in test [2], the “parental Conner's report: oppositional score” value is given as “no difference was recorded”. The “serum NGF level versus placebo” value in the test with NGF was “downregulated to the same extent”.

Values taken from patent US20100069402A1, “Treatment of Behavioral Disorders” (priority 2004, published 2010).
